The values that follow come from patent US6537978B1, “Oral administration of effective amounts of forms of hyaluronic acid” (Jagotec AG, priority 1996, dated 2003).

Data set [1] can be described thus: Rat serum hyaluronic acid levels and molecular weight after oral administration (gel filtration, carbazole and aggrecan ELISA-like assay). The data set is classed as in vivo. As to conditions: for serum/blood HA amount after oral compared with subcutaneous administration: oral 30 mg/kg vs subcutaneous 30-100 mg/kg. As for the experimental part: Elisa-Like Assay for Hyaluronic Acid in Column Fractions from Serum Obtained after the Oral Administration of Sodium Hyaluronate at 30 mg/kg (400.000)Daltons Mean Average Molecular Weight Distribution (Protein Standard), 2% by Weight in Sterile Water)
using 2 mL fraction volumes.
B.) Elisa-Like Assay for Hyaluronic Acid
Prior to assay the column fractions were prepared in the following manner:
1900 μ.L of each 2 mL fraction was frozen at—80° C. and then taken to dryness on a speed vac concentrator at room temperature.
fractions were reconstituted with 125 μ.L of ddH2O and then assayed.
The sharp drop in serum hyaluronic acid levels seen at 3 and 6 hours post-feeding appears to be a real event since it was reproduced in serum analyzed from two different animals for each time point. The overall trend appears to be satisfactory. It is indicative of an initial absorption of sodium hyaluronate in the stomach (1 hour post-feeding of HA) followed by a rapid clearance of this initial “pulse” from the blood. The second “pulse” of increased serum hyaluronic acid (9-12 hours post-feeding of HA) appears then to represent a second phase of absorption, as the administered sodium hyualuronate moves into the small and large intestine. The majority of serum hyaluronic acid at 1 hour and 9 hours post-feeding of HA (FIG. 3 (A), (D)) elutes in the region of V, indicating a molecular weight >71 kDa(Kilodaltons (high molecular weight species). Between 12-24 hours post-feeding (FIG. 3 (E), (G)), there appears to be an emergence of smaller molecular weight hyaluronic acid species in the molecular weight range between about 30 and about >80 kDa, and more particularly between 71-37.7 kDa (Kilo-daltons (peaks 1,2 and 3 in FIG. 1(G), representing 55.5, 47 and 38 kDa, respectively (Protein Standard). Two assays were used to measure HA in serum: (i) carbazole, and (ii) aggrecan assay.
F: Carbazole Assay for the Determination of Glucuronic Acid
For this assay, a linear response has been achieved with hyaluronic acid standards up to 200 μg./mL, (the range of linearity is expected to be extendible to even higher standard concentrations).
Place 3 mL of 0.025 M sodium tetraborate solution in glass tubes and cool thoroughly on ice prior to addition of samples and standards.
Carefully layer (so as to avoid mixing) 0.5 mL of sample or standard over the sodium tetraborate solution in the reaction tubes and place tubes back on ice until all tubes have been prepared.
Mix the contents of each tube thoroughly with a vortex mixer and return the tube to the ice, while mixing the others, to prevent excessive heating of sample.
Place reaction tubes in a 90° C. water bath for 10 minutes and then transfer to a tub of cool water for 5-10 minutes.
Add 100 μ.L of 0.125% carbazole solution to each tube and mix thoroughly with a vortex mixer.
Re-heat the reaction tubes in the 90° C. water bath for an additional 15 minutes. Transfer to a tub of cool water for 5-10 minutes.
Measure absorbance of samples and standards at 530 nm.
After completion of the reaction,transfter 200 μ.L of each sample and standard to individual wells of a 96 well microtest plate. Immediately measure the sample absorbance at 530 ηm (550 ηm, given the available filters with some instruments) using a microplate reader. Biotinylated Aggregcan, an HA binding protein, can be used to detect low levels of HA in serum by in ELISA assay that has been published and is known to persons skilled in the art. This assay is more sensitive than the carbazole assay and was used for conformation.
A general note: SEC sorts molecules by how far they enter the pores of the column.

In data set [2] the test system is rat carotid artery. The experiment in a line: Stenosis after balloon angioplasty injury of the rat carotid artery, oral HA. To be noted: for N/I RATIO ± S.E.M. (NEOINTIMA /INTIMA RATIO WHERE N IS NEOINTIMA AND I IS INTIMA): rat carotid artery after balloon injury, mean of four animals. The data set is classed as in vivo. The text has this:
FIG. 6 consists of a series of photographs of the cross-sections through carotid arteries of rats showing the effects of different amounts of orally administered Hyaluronan in stenosis of the rat carotid arteries:
All vessels were injured with a fogherty balloon as described in the prior art (Forns et. al., 1994) Cross-sections of arteries of rats treated with HA, saline or left untreated are as shown:
These values represent the mean of, and standard error of the mean (S.E.M.) of, four animals. These experiments were repeated twice with similar results.
FIG. 7 illustrates the effects of oral administration of HA on Neointimal formation in rats after balloon angioplasty. Six groups of tests were conducted, each test in respect of 3 rats. Thus, the six test results shown in […] resulted from the use of 18 rats. […] This is consistent with the findings illustrated in FIGS. 6 and 8 and the discussion herein.

Data set [3] in a line: Human serum hyaluronan levels and molecular weight after oral administration. The data set is classed as in vivo. To be noted: oral 30.0 mg/kg, m.w. less than 750,000 daltons (Protein Standard), FIG. 10. The text has this:
FIGS. 11A, 11B and 11C illustrate the release of amounts of hyaluronic acid into the blood stream of individuals (human) who have taken hyaluronan orally and the molecular weights of the serum hyaluronan released by the bodily processes. The molecular weights of the hyaluronan released into the human blood serum appear to include amounts at peaks between 400,000 daltons and 600,000 daltons such as less than 500,000 daltons, between about 200,000 and about 300,000 such as greater than 200,000 daltons, and between about 30,000 daltons and about 80,000 daltons (determined using the Dextran Standard).
FIG. 10 illustrates the mean serum hyaluronan concentration after giving individual humans oral dosages containing 30.0 mg/kg of hyaluronan (molecular weight less than 750,000 daltons determined by the Protein Standard).

For data set [4], the system named is neutrophils. Nature of the data set: MPO (myleoperoxidase) content, neutrophil accumulation at the site of restenosis, oral HA. The data set is classed as in vivo, rat. To be noted: FIG. 8. The text has this:
With respect to neutrophil accumulation, reference is to be had to FIG. 8—MPO Content (oral) where MPO is Myleoperoxidase and MPO has been assayed by the methods known to persons skilled in the art. This assay for detecting myleoperoxidase (which is an enzyme) is a good test and thus a good measure for detecting neutrophils.

The mark [5] stands for this setting: oral 30 mg/kg, 12-24 hours post-feeding, Protein Standard.

For the substance sodium hyaluronate [HA], the “serum/blood HA amount after oral compared with subcutaneous administration” value is on record as “similar” in data set [1] and “on the order of that seen for the subcutaneous administration of this compound at 30-100 mg/kg” in data set [1] (listed as sodium hyaluronate). Besides, the “molecular weight of serum hyaluronic acid, peak 1” value in data set [1] (setting [5]) stood at 55.5 kDa. Also, in data set [1] (setting [5]), the “molecular weight of serum hyaluronic acid, peak 2” value amounted to 47 kDa. Besides, the “molecular weight of serum hyaluronic acid, peak 3” value in data set [1] (setting [5]) was 38 kDa. For the same substance, the “molecular weight of the majority of serum hyaluronic acid” value in data set [1] (oral 30 mg/kg, 1 hour and 9 hours post-feeding, Protein Standard) is greater than 71 kDa. Besides, the “time course of HA in blood after oral administration” value in data set [1] (oral 30 mg/kg, FIG. 3) was “burst of HA in blood one hour after administration, a decrease for five hours followed by a steady increase over the next eighteen hours”. The “time after administration at which serum hyaluronan levels increase” value in data set [1] (oral 30 mg/kg, FIG. 4) is reported as “about 1.25 hours”. The “first increase of serum hyaluronic acid after oral administration” value in data set [1] (single oral dose 30 mg/kg, 2% in sterile water) was “increased within the first hour”. The “serum hyaluronic acid after the first pulse” value in data set [1] (single oral dose 30 mg/kg, 3 and 6 hours post-feeding) was “sharp decrease to background levels in normal serum at 3 and 6 hours post-feeding”. Besides, in data set [1] (single oral dose 30 mg/kg, from 9 hours post-feeding), the “second increase of serum hyaluronic acid” value was “increase at 9 hours post-feeding of HA and this increase is sustained over the time period extending up to 24 hours”. Also, the “N/I RATIO ± S.E.M. (NEOINTIMA /INTIMA RATIO WHERE N IS NEOINTIMA AND I IS INTIMA)” value in data set [2] (1 mg/kg orally) is reported as 2.6 ± 0.8; in data set [2] (3 mg/kg orally), 1.7 ± 0.4; in data set [2] (10 mg/kg orally), 0.4 ± 0.03; in data set [2] (30 mg/kg orally), 0.99 ± 0.06; in data set [2] (100 mg/kg orally), 1.1 ± 0.08. The “neointimal to total wall ratio, order of the dose groups” value in data set [2] (oral HA, rats after balloon angioplasty, 3 rats per group, FIG. 7) is “greater for administration of saline, followed by the administration of HA in amounts per kilogram of body weight of 1 mg, then 100 mg, 10 mg and 3 mg”. In addition, in data set [2] (oral administration, rat, FIG. 6), the “oral dose with optimal effects on smooth muscle cell proliferation” value fell in the range of 3 to 10 mg/kg. In addition, the “time window of increased serum hyaluronan levels” value in data set [3] fell in the range of 4 to 12 h. Besides, the “neutrophil number (MPO content) at the site of restenosis” value in data set [4] is listed as “reduces the number of neutrophils”.
